The source of these data is article PMC9737972, “Dual LSD1 and HDAC6 Inhibition Induces Doxorubicin Sensitivity in Acute Myeloid Leukemia Cells” (Cancers, 2022).

For assay [1], the target named is T1, Human recombinant C-ter-His-FLAG-HDAC1 (Homo sapiens, UniProt Q13547).
T1 construct: His (C); FLAG (C); purchased BPS Bioscience 50051
As to the kind of experiment: HDAC-Glo I/II enzyme assay, HDAC1. The assay is classed as biochemical. Particulars: ± standard error, three independent measurements.

In a further assay the target is T2, HDAC-3/NcoR2 (Homo sapiens, UniProt O15379).
T2 construct: purchased BPS Bioscience 50003
T2 sequence (O15379 whole entry): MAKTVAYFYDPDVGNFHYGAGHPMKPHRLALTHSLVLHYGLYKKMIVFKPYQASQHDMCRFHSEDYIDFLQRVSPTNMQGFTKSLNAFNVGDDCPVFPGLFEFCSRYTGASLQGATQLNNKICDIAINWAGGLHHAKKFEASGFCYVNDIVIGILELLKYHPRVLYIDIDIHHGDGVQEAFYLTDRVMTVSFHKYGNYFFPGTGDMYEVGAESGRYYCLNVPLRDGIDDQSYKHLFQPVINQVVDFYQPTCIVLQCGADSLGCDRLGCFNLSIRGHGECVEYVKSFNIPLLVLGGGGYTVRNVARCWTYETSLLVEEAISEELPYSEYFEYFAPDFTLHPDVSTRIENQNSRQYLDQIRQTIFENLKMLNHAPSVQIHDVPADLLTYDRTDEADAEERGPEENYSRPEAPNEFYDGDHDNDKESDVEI
T2 sequence (Q9Y618 395-489 partner limits assumed): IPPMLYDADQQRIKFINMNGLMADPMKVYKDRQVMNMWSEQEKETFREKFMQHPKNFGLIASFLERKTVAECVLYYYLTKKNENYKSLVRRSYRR
The assay is described as follows: HDAC-Glo I/II enzyme assay, HDAC3. It counts as biochemical. Particulars: ± standard error, three independent measurements.

In a further assay the target is T3, C-terminal His-tag-HDAC8 (Homo sapiens, UniProt Q9BY41).
T3 construct: His (C); purchased BPS Bioscience 50008
T3 sequence (Q9BY41 1-377): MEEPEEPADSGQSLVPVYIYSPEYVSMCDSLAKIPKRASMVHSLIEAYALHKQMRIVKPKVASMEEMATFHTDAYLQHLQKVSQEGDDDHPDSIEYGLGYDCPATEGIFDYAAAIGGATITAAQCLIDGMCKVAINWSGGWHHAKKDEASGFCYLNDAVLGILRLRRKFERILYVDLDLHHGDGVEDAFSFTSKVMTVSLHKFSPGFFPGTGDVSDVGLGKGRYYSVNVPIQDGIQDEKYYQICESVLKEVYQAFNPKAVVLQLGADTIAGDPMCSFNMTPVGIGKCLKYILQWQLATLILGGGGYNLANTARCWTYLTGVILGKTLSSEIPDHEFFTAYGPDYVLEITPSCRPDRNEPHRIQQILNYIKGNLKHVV
As to the kind of experiment: HDAC-Glo I/II enzyme assay, HDAC8. It counts as biochemical. Particulars: ± standard error, three independent measurements.

Another assay relates to THP-1. As to the kind of experiment: Cell Titer-Glo cell viability, THP-1. It counts as cell-based. Particulars: Homo sapiens, THP-1; 120 h, ± standard deviation, three biological repeats; read-out: IC50 cell viability THP-1. In general terms: Cellular ATP, detected with luciferase, serves as a proxy for viable cell number.
The next assay deals with K-562. As to the kind of experiment: Cell Titer-Glo cell viability, K-562. The assay is classed as cell-based. Particulars: Homo sapiens, K562; 120 h, ± standard deviation, three biological repeats; read-out: IC50 cell viability K-562.
In the next assay the test system is Jurkat. As to the kind of experiment: Cell Titer-Glo cell viability, Jurkat. It counts as cell-based. Particulars: Homo sapiens, 120 h, ± standard deviation, three biological repeats, read-out: IC50 cell viability Jurkat.
The test system of the next assay is THP-1 cells. As to the kind of experiment: RT-qPCR gene expression in THP-1 cells. The assay is classed as cell-based. Particulars: for p21 mRNA expression: THP-1 cells, 1 μM, 24 h. The method, then:
NucleoSpin™ RNA Plus Isolation Kit (Macherey Nagel™, Dueren, Germany, 740955.50) and M-MLV Reverse Transcriptase kit (Thermo Fisher Scientific, Waltham, MA, USA, #28025013) protocols were employed for RNA isolation and cDNA synthesis, respectively, with 500 ng of RNA converted to cDNA for each sample. Gene expression levels were quantified with qRT–PCR method using a LightCycler 480 SYBR Green I Master (Roche Diagnostics, Penzberg, Germany, #50-720-3180) and normalized to β-actin or GAPDH. Briefly, 10 ng of cDNA template was amplified using 10 μL LightCycler 480 SYBR Green I Master (Roche Diagnostics), and gene-specific primers (Table S1) mixed in a final volume of 20 μL. The samples were incubated at 95 °C for 5 minutes, followed by 40 cycles of 95 °C for 10 seconds, 55 °C for 30 seconds, and 72 °C for 1 second. The relative amounts of gene expressions were calculated with the 2^(−ΔΔCT) method. All analyses were performed in duplicates and three biological replicas.
Figure 4 Assessment of biological activity through changes in methylation or acetylation and cell differentiation (A–C). Colored graphs illustrate epidrug targets and visualize expected outcomes upon target inhibition. Blue cylinders represent histone octomers (A,B) and green tubes represent microtubules (C). […] Histone methylation, histone acetylation, and α-tubulin acetylation levels were quantified from Western blot band intensities (Figure S18). Full Western blot images can be found in Figure S30. (D,E) Expression levels of mRNA were measured by RT-qPCR analysis and were normalized to two housekeeping genes, β-actin and GAPDH, for p21 and CD11b and CD86. […] Relative expression was determined with the 2(^−ΔΔCT) method, and the data are represented as the average ± standard error of the mean of two biological repeats with technical duplicates. (* p < 0.05, ** p < 0.01 student t-test). Illustrations were generated in BioRender.com.
On the technique in general: Real-time PCR tracks product formation cycle by cycle.

A further assay relates to MOLM-13. As to the kind of experiment: Combination treatment with doxorubicin, MOLM-13 cell viability. The assay is classed as cell-based. Particulars: iDual 0.5 μM, iHDAC6 0.5 μM, GSK2879552 1.25 μM, ricolinostat […], 72 h then + doxorubicin 2 nM 48 h.

T1 sequence (Q13547 whole entry): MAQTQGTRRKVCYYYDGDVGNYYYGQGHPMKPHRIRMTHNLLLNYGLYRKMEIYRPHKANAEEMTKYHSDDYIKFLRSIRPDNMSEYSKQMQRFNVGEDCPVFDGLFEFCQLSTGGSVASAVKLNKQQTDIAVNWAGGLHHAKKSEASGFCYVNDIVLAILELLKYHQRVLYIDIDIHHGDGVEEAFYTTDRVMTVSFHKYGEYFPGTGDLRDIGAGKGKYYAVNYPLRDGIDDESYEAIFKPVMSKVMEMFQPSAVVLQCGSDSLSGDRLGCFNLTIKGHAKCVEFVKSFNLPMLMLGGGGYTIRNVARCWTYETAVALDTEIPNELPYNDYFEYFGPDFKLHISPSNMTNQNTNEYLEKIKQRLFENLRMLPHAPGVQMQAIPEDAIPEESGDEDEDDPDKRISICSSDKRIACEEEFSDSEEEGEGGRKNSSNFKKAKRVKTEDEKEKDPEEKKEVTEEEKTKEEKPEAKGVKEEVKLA

Regarding `O=C(NO)c1ccc(CN2CCC(CN[C@@H]3C[C@H]3c3ccccc3)CC2)cc1` (relative stereo) [iDual], the 50% inhibitory concentration (IC50) in assay [1] was 5.31 ± 0.25 µM; on HDAC-3/NcoR2 it was 2.29 ± 0.14 µM; against C-terminal His-tag-HDAC8, 0.29 ± 0.04 µM; in the assay on THP-1, 16.3 ± 5.4 µM; in the assay with K-562 it was 16.6 ± 2.7 µM; in the assay on Jurkat, 15.5 ± 1.4 µM. Further, the ATM expression increase entry in the assay on THP-1 cells (THP-1, 5 μM, 72 h) was “~ two-fold”. The ATR expression increase entry in the assay with THP-1 cells (THP-1, 5 μM, 72 h) was “~ two-fold”. For the same compound, the “expression of a panel of ABC transporters” value in the assay on THP-1 cells (THP-1, 5 μM, 72 h) was “no decrease”. Besides, in the assay with THP-1 cells (THP-1, 5 μM, 72 h, all targets of Table 3 except Wnt7B), the “expression of doxorubicin sensitizer genes (AGPAT9, ALOX5, BTG1, HIPK2, IFI44L, LRP1)” value is recorded as “upregulated”. In addition, in the assay on THP-1 cells (THP-1, 5 μM, 72 h, p ≤ 0.001), the Rad51 expression increase entry was “three-fold”. Also, the “p21 mRNA expression” value with THP-1 cells is on record as “increased”. For the same compound, the “cell viability after priming with compound and co-treatment with doxorubicin 2 nM” value in the assay on MOLM-13 was “greatest decrease”.
For the compound `O=C(NO)c1ccc(CN2CCC(CNC3(c4ccccc4)CC3)CC2)cc1` [iHDAC6], the half-maximal inhibitory concentration (IC50) was found to be 7.57 ± 0.29 µM in assay [1]; 4.09 ± 0.26 µM on HDAC-3/NcoR2; 0.45 ± 0.07 µM on C-terminal His-tag-HDAC8; 9.7 ± 2.4 µM in the assay with THP-1; 17.6 ± 1.6 µM in the assay with K-562; 10.7 ± 0.8 µM with Jurkat. In addition, the “p21 mRNA expression” value in the assay on THP-1 cells was “increased”. The “cell viability after priming with compound and co-treatment with doxorubicin 2 nM” value in the assay with MOLM-13 is “relatively ineffective”.

What is called IC50 is the concentration that inhibits the measured activity by half.
